Laboratory results from paper PMC1073692, “An Unbiased Cell Morphology–Based Screen for New, Biologically Active Small Molecules” (PLoS Biology, 2005).
Converted amounts (≈) assume the structure as drawn. “And” between values parts separate entries of the source, which are not always exact repeats. Equal values may be shown once. “Also recorded” adds a separate entry of the source. Read-outs that look alike come from different tables or passages of the source.

Legend:
[1] = tested on: A549, DU145, HUVEC, SF268 and SKOV3 cells; test: Cytometrix cell morphology-based screen; set-up: species or system human; settings: for Cytometrix phenotype (PCA trajectory): 6 nM to 40 μM; for EC50: Homo sapiens, read-out: Approximate EC50 (distance in PCA space from DMSO controls); for Potency in Cytometrix relative to parent compound (fold lower): linker analog vs parent, data not shown
Procedure: SKOV3 (ovarian epithelial cancer), A549 (lung epithelial cancer), and SF268 (central nervous system epithelial cancer) were chosen for their broad genetic diversity and obtained from the National Institutes of Health. These human cells were grown and maintained in RMPI medium (Mediatech, Herndon, Virginia, United States) with 5% fetal calf serum (FBS, HyClone, Logan, Utah, United States). DU145 (prostate epithelial cancer) cells ( ATTC, Manassas, Virginia, United States) were maintained in MEM with 5% FBS. HUVEC cells (VEC Technologies, Rensselaer, New York, United States) were maintained in MCDB131 medium (VEC Technologies) with 10% FBS. For the assays 1,000–1,800 trypsinized (Mediatech) cells per well (depending on cell type) were plated in 384-well plates (Corning Costar, Acton, Massachusetts, United States) using a Multidrop (Thermo Labsystems, Beverly, Massachusetts, United States) and incubated for 24 h, the approximate doubling time. Six cell plates were made for each cell line.
Compound stocks were maintained in DMSO. Compound information was stored in ActivityBase (ID Business Solutions, Guildford, United Kingdom). Compounds were serially diluted in 384-well drug plates to achieve eight concentrations diluting 3× in DMSO between wells using a Multimek (Beckman Coulter, Fullerton, California, United States). Wells were reserved on every drug plate for negative and positive controls. Negative-control wells contained DMSO only and the positive-control wells received a titration of paclitaxel, a tubulin stabilizer (Sigma-Aldrich-Fluka, St. Louis, Missouri, United States). […] Small molecules were tested at 40 μM on cells based on the logic that cellular effects on cells at […] concentration are most likely nonspecific and that we would most likely get a full-dose response after eight 3-fold dilutions (6 nM to 40 μM final concentrations).
Compounds were added to cell plates from drug plates. Compound mixed with medium was added to the cells to achieve a 0.4% DMSO concentration on prepared cell plates using a PlateTrak (CCS Packard, Torrance, California, United States). Treated cells were incubated for another 24 h, the compound exposure time.
Cells were stained for visualization of the nuclei, Golgi apparatus, and microtubules. Cells were fixed with 4% formaldehyde (Polysciences, Warrington, Pennsylvania, United States) for 1 h; washed in TBS (Teknova, Half Moon Bay, California, United States); blocked in 0.01% Triton X-100 (ICN Biomedicals, Irvine, California, United States) and 1% BSA in TBS (Teknova) and then left to incubate for 1 h; stained with 0.01% Triton X-100, 0.1% BSA, 5 μg/ml Hoechst 33342 (Molecular Probes, Eugene, Oregon, United States), 5 μg/ml FITC-Lectin Lens Culinaris (Sigma-Aldrich-Fluka), and 3 μg/ml Rhodamine Red–labeled monoclonal antibody DM1α (courtesy of Tim Stearns) for 1 h; and then washed in TBS. All of these steps were performed with a PlateTrak using an ELx405 microplate washer (Bio-Tek Instruments, Winooski, Vermont, United States). This was done in triplicate for each cell line.
Cells were imaged on an inverted Axiovert 100M epifluorescent microscope (Carl Zeiss, Oberkochen, Germany) with a 5× objective and a Xenon lamp (Sutter Instruments, Novato, California, United States). A 5× magnification was chosen (rather than 40×) primarily as a function of the need to acquire a large number of individual cells in order to gather statistically relevant data on relatively rare subpopulations. The number of cells in a randomly acquired 40× image is not sufficient to make meaningful statistical measurements across many cells. Metamorph (Universal Imaging, Downingtown, Pennsylvania, United States) was used to control the motorized x, y, z stage (Prior Scientific, Rockland, Massachusetts, United States) that moved the plate to each well, autofocused, and took three successive fluorescent images with an Orca 100 camera (Hamamatsu, Hamamatsu City, Japan). […]

human CBR1 = molecular target: T1, human CBR1 (Homo sapiens, UniProt P16152); test: CBR1 assay (NADPH-dependent reduction of menadione, spectrophotometric)
T1 sequence (P16152 1-277): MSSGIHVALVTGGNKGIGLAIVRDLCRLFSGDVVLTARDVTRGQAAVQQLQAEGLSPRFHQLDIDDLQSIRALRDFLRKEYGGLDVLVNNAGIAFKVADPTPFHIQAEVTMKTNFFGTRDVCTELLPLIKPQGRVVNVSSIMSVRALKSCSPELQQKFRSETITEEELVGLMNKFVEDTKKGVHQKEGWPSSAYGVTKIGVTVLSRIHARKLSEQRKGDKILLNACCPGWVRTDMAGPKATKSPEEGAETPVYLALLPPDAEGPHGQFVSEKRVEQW
Procedure: CBR1 activity was determined spectrophotometrically at 25 °C. The standard assay mixture consisted of 50 mM sodium phosphate (pH 6.8), 200 μM NADPH, and 200 μM menadione in a total volume of 1 ml. Compounds were dissolved in DMSO as 100× stock solutions. Reactions were initiated by the addition of enzyme, and initial rates were determined by monitoring the disappearance of NADPH at 340 nM. Controls without substrates or enzyme were routinely included.

p38-α = molecular target: T2, p38-α (Homo sapiens, UniProt Q16539); test: Kinase disk assay (32P transfer to peptide), p38; assay type: biochemical; settings: Table S3; […] 100 µM substrate, 11 nM [γ-32P]ATP
T2 construct: made in house; host or cells: bacteria
Procedure: (§1) Fyn and p38 kinases were expressed in bacteria and purified as previously described. Protein kinase A and Protein kinase B were obtained commercially (Upstate Cell Signaling Specialties Charlottesville, Virginia, United States). […] Reaction mixtures (27 μl) were spotted onto a phosphocellulose disk and washed with 0.5% H3PO4. The transfer of ^32P was measured by standard scintillation counting. […] When the IC50 value fell between two measured concentrations, it was calculated based on the assumption of an inversely proportional relationship between inhibitor concentration and counts per minute between the two data points.
(§2) IC50 values against Fyn and p38 are given (left), and percentage activity of PKA and PKB in presence of the inhibitors are given (right). Kinase activity was determined using a standardized disk assay based on the P^32 transfer to a synthetic peptide (See Materials and Methods). […] Peptide subrate sequences for each kinase are shown below:
[…] (100 µM) was used as the substrate for p38.

protein kinase B = molecular target: T3, protein kinase B (Homo sapiens, UniProt P31749); test: Kinase disk assay (32P transfer to peptide), PKB; assay type: biochemical; settings: 25 min, read-out: Relative activity @ 1 µM inhibitor PKB
T3 construct: purchased Upstate Cell Signaling Specialties
Procedure: as §1, §2
bzRPRTSSF (100 µM) was used as the susbtrate for PKB.

protein kinase A = molecular target: T4, protein kinase A (Homo sapiens, UniProt P17612); test: Kinase disk assay (32P transfer to peptide), PKA; assay type: biochemical; settings: remaining kinase activity
T4 construct: purchased Upstate Cell Signaling Specialties
Procedure: as §1, §2
bzRRASLG (100 µM) was used as the susbtrate for PKA.

Fyn = molecular target: T5, Fyn (Homo sapiens, UniProt P06241); test: Kinase disk assay (32P transfer to peptide), Fyn; assay type: biochemical
T5 construct: made in house; host or cells: bacteria
Procedure: as §1, §2
[…] (100 µM) was used as the substrate for Fyn.

A549 cells [2] = test: PI-stained cell assay, serum-withdrawal-induced apoptosis; assay type: cell-based, human; settings: for Enhancement of induction of apoptosis by cell stresses: A549, interferon-γ + Fas ligand, H2O2, interleukin-1β, serum withdrawal, interleukin-1β + serum withdrawal, data not shown; for Protection against serum-withdrawal-induced apoptosis (PI staining): 65 h following serum withdrawal
Text: We chose to focus on signals that induce apoptosis in A549 adenocarcinoma cells because this endpoint is important for many cell-fate decisions, including those relevant to cancer and inflammation. CBR1 has been directly implicated in redox reactions leading to H2O2 generation, a known stimulus for apoptosis. A549 cells were subjected to a wide range of cell stresses previously shown to induce apoptosis: (1) interferon-γ + Fas ligand, (2) H2O2, (3) interleukin-1β, (4) serum withdrawal, or (5) interleukin-1β + serum withdrawal.
(§3) Cell viability was determined by the alamarBlue reagent reduction assay in a 96-well culture plate, measuring the absorbance at 570 and 600 nm spectrophotometrically. The amount of PI-stained cells was estimated by measuring fluorescence following incubation with PI (5 μg/ml). For both experiments, data are shown as the percentages of nontreated control cells.

[3] = Solubility limit in the CBR1 assay; assay type: physicochemical
A549 cells [4] = test: Cell viability assay (alamarBlue reduction), daunorubicin combination; assay type: cell-based, human; settings: for Cytotoxicity on A549 cells when used alone: 8 μM; for Enhancement of daunorubicin-mediated A549-cell killing: 8 μM compound with 440 nM daunorubicin
Text: To test this hypothesis, we measured the ability of hydroxy-PP-Me and PP-L to block CBR1-mediated metabolism of daunorubicin in A549 cells using cell killing as a measure of the cellular status of daunorubicin metabolism. […] Hydroxy-PP-Me induced a 25% enhancement of daunorubicin-mediated A549-cell killing consistent with its ability to inhibit CBR1-mediated daunorubicin metabolism. […] Although the observed 25% enhancement of daunorubicin-mediated cell killing is modest, the hydroxy-PP-Me dose dependence (Figure 5B) of this effect is further evidence that it is CBR1 mediated rather than a general toxic response.
A549 cells were purchased from ATCC and cultured in the F-12K medium with 10% of FBS. Cells were maintained at 37 °C in an atmosphere of 5% CO2. Adherant cells were released for passaging using an isotonic Trypsin solution (0.25% Trypsin, 0.02% Versene). Rabbit anti-human CBR1 antibody was obtained from Dr. Tsuchida. The CBR expression vector, pET-11aCR, was obtained from Dr. Wermuth.
as §3

[5] = IC50 against CBR1, 200 μM NADPH, 200 μM menadione, pH 6.8, 25 °C
[6] = 1 µM inhibitor, remaining kinase activity
[7] = read-out: IC50 against Fyn (Figure 3)
[8] = Table S3, LEEIYGEFKKK 100 µM substrate, 11 nM [γ-32P]ATP, read-out: IC50 (nM) Fyn

T3 sequence (P31749 whole entry, species assumed): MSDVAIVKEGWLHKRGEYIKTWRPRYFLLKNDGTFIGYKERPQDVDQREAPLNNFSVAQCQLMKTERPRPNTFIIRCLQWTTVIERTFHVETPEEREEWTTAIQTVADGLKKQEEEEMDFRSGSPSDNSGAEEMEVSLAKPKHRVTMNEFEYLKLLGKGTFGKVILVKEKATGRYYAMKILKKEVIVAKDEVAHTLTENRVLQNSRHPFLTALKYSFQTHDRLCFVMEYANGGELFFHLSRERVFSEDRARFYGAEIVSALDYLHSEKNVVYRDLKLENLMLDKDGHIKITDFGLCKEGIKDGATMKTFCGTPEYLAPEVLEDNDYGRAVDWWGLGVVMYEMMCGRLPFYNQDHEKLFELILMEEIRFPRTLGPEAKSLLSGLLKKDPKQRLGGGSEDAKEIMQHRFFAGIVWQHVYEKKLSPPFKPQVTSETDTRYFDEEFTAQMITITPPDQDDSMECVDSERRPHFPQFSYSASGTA
T2 sequence (Q16539 whole entry): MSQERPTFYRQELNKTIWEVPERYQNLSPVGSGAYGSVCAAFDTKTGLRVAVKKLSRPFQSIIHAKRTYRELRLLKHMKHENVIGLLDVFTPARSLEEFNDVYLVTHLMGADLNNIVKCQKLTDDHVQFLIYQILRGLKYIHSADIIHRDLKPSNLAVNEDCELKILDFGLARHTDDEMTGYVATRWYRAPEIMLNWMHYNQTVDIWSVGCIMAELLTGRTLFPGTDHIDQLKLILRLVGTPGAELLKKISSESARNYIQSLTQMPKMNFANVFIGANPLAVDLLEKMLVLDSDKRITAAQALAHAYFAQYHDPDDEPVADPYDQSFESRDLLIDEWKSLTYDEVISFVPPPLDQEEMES
T5 sequence (P06241 whole entry, species assumed): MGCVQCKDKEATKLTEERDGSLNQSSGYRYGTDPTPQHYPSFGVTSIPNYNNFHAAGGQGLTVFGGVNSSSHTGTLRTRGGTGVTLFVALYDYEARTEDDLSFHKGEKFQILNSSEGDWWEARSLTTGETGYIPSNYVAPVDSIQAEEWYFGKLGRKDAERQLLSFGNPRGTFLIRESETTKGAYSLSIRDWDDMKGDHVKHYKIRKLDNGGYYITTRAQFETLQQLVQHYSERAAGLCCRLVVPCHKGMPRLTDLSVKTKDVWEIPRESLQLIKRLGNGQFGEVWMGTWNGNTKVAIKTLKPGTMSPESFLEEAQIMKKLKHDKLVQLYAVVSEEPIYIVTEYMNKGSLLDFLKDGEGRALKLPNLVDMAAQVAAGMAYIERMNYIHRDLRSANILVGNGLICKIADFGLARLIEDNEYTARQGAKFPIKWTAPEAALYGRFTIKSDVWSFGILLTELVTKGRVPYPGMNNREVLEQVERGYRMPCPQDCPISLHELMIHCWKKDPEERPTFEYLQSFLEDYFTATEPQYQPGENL

| IC50 (human CBR1; [5]) [µM] | IC50 (p38-α) [nM] | activity at 1 µM (protein kinase B; [6]) [%] | Relative activity @ 1 µM inhibitor PKA (protein kinase A) [%] | IC50 (Fyn; [7]) | SMILES | Cytometrix phenotype (PCA trajectory) ([1]; 24 h, five cell types) | Protection against serum-withdrawal-induced apoptosis (PI staining) (A549 cells [2]; A549 cells) | also measured |
| --- | --- | --- | --- | --- | --- | --- | --- | --- |
| 0.788 | 17000 | 91 | 110 | 5 nM | CC(C)(C)n1nc(-c2cccc(O)c2)c2c(N)ncnc21 [hydroxy-PP, 3-(1-tert-butyl-4-amino-1H-pyrazolo[3,4-d]pyrimidin-3-yl)phenol] | distinct from the phenotypes induced by kinase inhibitors and the microtubule depolymerization inhibitors | able to block A549-cell apoptosis | EC50 ([1]; 24 h treatment, five cell types, concentration of Figure 1D, called approximately the EC50): ~0.4 µM; IC50 (human CBR1; IC50 against CBR1, re-screen of the screening collection, data not shown): < 1 µM; Enhancement of induction of apoptosis by cell stresses (A549 cells [2]): no enhancement |
|  |  |  |  |  | CCOCCn1nc(-c2cccc(O)c2)c2c(N)ncnc21 [hydroxy-PP-L] |  | protects A549 cells against serum-withdrawal-induced apoptosis, although to a lesser extent than hydroxy-PP-Me | Potency in Cytometrix relative to parent compound (fold lower) [1]: approximately 5 fold; Protection against serum-withdrawal-induced apoptosis (PI staining) (A549 cells [2]; A549 cells, listed as Hydroxy-PP-L): dose-dependent decrease in PI staining |
| > 200 | 4000 | 92 | 92 | 50 nM | CC(C)(C)n1nc(-c2ccccc2)c2c(N)ncnc21 [PP, 1-tert-butyl-3-phenyl-1H-pyrazolo[3,4-d]pyrimidin-4-amine, reference compound] | phenotypic profile comparable to PP2 |  | Inhibition of CBR1 activity (human CBR1; up to solubility limit of 200 μM): no inhibition; solubility [3]: 200 µM (≈ 53.5 µg/mL); IC50 (Fyn; [8]): 110 nM |
|  |  |  |  |  | COC(=O)[C@@]1(O)C[C@H]2O[C@]1(C)n1c3ccccc3c3c4c(c5c6ccccc6n2c5c31)C(=O)NC4 [K252a, reference compound] | dose-dependent morphological changes in A549, DU145, HUVEC, and SF268 cells but not SKOV3 cells |  |  |
|  |  |  |  |  | CC(=O)O[C@H]1C(=O)[C@@]2(C)[C@H]([C@H](OC(=O)c3ccccc3)[C@]3(O)C[C@H](OC(=O)[C@H](O)[C@@H](NC(=O)c4ccccc4)c4ccccc4)C(C)=C1C3(C)C)[C@]1(OC(C)=O)CO[C@@H]1C[C@@H]2O [paclitaxel, reference compound] | pronounced and highly reproducible trajectory |  |  |
|  |  |  |  |  | CCOCCn1nc(-c2ccccc2)c2c(N)ncnc21 [PP-L] |  | does not | Potency in Cytometrix relative to parent compound (fold lower) [1]: approximately 5 fold; Cytotoxicity on A549 cells when used alone (A549 cells [4]): minimal cytotoxicity; Enhancement of daunorubicin-mediated A549-cell killing (A549 cells [4]): no enhancement of cell killing |
| 0.759 | > 50000 | 95 | 106 | 70000 nM and > 70000 nM | CNc1ncnc2c1c(-c1cccc(O)c1)cn2C(C)C [hydroxy-PP-Me, 3-(7-isopropyl-4-(methylamino)-7H-pyrrolo[2,3-d]pyrimidin-5yl)phenol] |  | dose-dependent decrease in PI staining; also recorded: almost completely protected against apoptosis | Cytotoxicity on A549 cells when used alone (A549 cells [4]): minimal cytotoxicity; Enhancement of daunorubicin-mediated A549-cell killing (A549 cells [4]): 25%; Cell viability with concomitant daunorubicin treatment (A549 cells [4]; 1–8 μM compound plus daunorubicin): dose-dependent decrease in cell viability; IC50 (Fyn; [8]): > 50000 nM; Enhancement of induction of apoptosis by cell stresses (A549 cells [2]): no enhancement; Apoptosis induced by serum withdrawal blocked (A549 cells [2]; A549 cells): more than 90% |
|  |  |  |  |  | CC(C)(C)n1nc(-c2ccc(Cl)cc2)c2c(N)ncnc21 [PP2, 1-tert-butyl-3-(4-chlorophenyl)-1H-pyrazolo[3,4-d]pyrimidin-4-amine, reference compound] |  |  | EC50 ([1]; 24 h): ~129 µM; activity at 1 µM (protein kinase B): 103% |
|  |  |  |  |  | COc1cccc2c1C(=O)c1c(O)c3c(c(O)c1C2=O)C[C@@](O)(C(C)=O)C[C@@H]3O[C@H]1C[C@H](N)[C@H](O)[C@H](C)O1 [daunorubicin, reference compound] |  |  | IC50 (A549 cells [4]; Homo sapiens, A549, read-out: Approximate IC50 for cell killing as a single agent): ~0.44 µM |
